Values quoted from earlier work in patent US20030232367A1, “Differentially expressed genes involved in angiogenesis, the proteins encoded thereby, and methods of using the same” (priority 2002, published 2003).

Test system: vascular endothelial cell proliferation
Settings: endothelial vs tumor cell proliferation (Ingber et al. 1990)

CO[C@@H]1[C@H](OC(=O)NC(=O)CCl)CC[C@]2(CO2)[C@H]1[C@@]1(C)O[C@@H]1CC=C(C)C [AGM-1470]
half-maximal inhibition of vascular endothelial cell proliferation at lower concentration than tumor cell proliferation: 4 logs
